Entries after “also recorded” stand apart in the source; their conditions may differ. Positions of bridges follow the written chain, without caps; N, C: chain ends. Non-standard residues stand in square brackets, D forms with d. Residues, ends and D or L forms follow the SMILES beside them. hArg = N=C(N)NCCCC[C@H](N)C(=O)O; Mpa = O=C(O)CCS
What was measured:
FcγRIIa = experiment: Vessel-On-Chip thrombosis, all endpoints (platelet coverage, fibrin deposition, TAT); assay type: cell-based, human; conditions: for hu5C8-mediated thrombosis on-chip (platelet coverage, fibrin deposition, TAT): with sCD40L 10 ng/ml, IV.3 1 μg/ml pre-incubation or IgG2σ variant in place of hu5C8
[1] = test system: platelets in human whole blood over HUVEC endothelium; experiment: Vessel-On-Chip blood perfusion, platelet coverage by fluorescence imaging; assay type: cell-based; conditions: for platelet aggregation / platelet coverage: TNF-α 50 ng/ml 6 hours endothelial pre-treatment or sCollagen 10 μg/ml in blood, vs blood alone; for platelet aggregate formation / platelet coverage: hu5C8 240 μg/ml, sCD40L 10 ng/ml, untreated endothelium, 60 μl/minute, vs untreated blood
Experimental: (§1) Briefly, human blood was drawn in citrate buffer and used within 4 hours. Platelets were stained using fluorescently labeled non-blocking antibodies for the platelet surface marker CD41 and low dosages of fluorescent fibrinogen were added in order to visualize fibrin deposition. Blood was re-calcified in order to re-establish the full coagulation potential, then introduced in the biomimetic vessel-on-chip from the main inlet (embodiments of inlets shown in FIG. 18A-1, FIG. 18A-2 and FIG. 19C). The outlet of the chip was connected to a pulling syringe pump with a system of tubing and connectors made of medical grade silicon that excludes any metal components or potential causes of platelet activation (FIG. 5A).
(§2) After 14 minutes of perfusion, the flow was interrupted and the chips were immediately imaged via fluorescence microscopy (FIG. 18C and FIG. 19D). In healthy conditions, endothelial cells will provide an antithrombotic surface where blood can flow smoothly, and indeed we detected minimal platelet adhesion or fibrin deposition in our vessel-on-chip after blood perfusion in control conditions, FIG. 18C, Blood.
Platelets were labeled with human CD41-PE antibody (10 μL/ml, Invitrogen) directly added to the blood and incubated at room temperature for 5 minutes.
A medical grade plastic reservoir was mounted on the chip, then 800 μl of the blood sample was pipetted into the reservoir. The chip was perfused with the blood by withdrawing it at a rate of 60 μl/minute using a syringe pump. The citrated blood was re-calcified 2 minutes after the beginning of each experiment by adding 100 μl/ml of a solution containing 100 mM calcium chloride and 75 mM magnesium chloride to the blood to permit calcium- and magnesium-dependent platelet function and coagulation.
(§3) Chips perfused with blood samples were immediately imaged via fluorescence microscopy (Olympus IX83, 10× objective UPLFLN10×2, Orca-Flash4.0 CMOS Camera). Each chamber was inspected along its entire length and S images (about 0.25 cm) were captured from the central area of the chamber. Image processing and quantification was performed with an automatic macro compiled in ImageJ and numerical values corresponding to platelet coverage or fibrin florescence were collected and statistically analyzed in Graphpad Prism V7.
(§4) A percentage of signal coverage (or Platelet coverage) was computed from the binary image as the ratio of bright pixels to the total number of pixels in the image. Image processing and quantification was performed with an automatic macro compiled in ImageJ in order to ensure unbiased signal measurements. Numerical values corresponding to platelet coverage or fibrin fluorescence (signal intensity) were collected and statistically analyzed in Graphpad Prism V7.

[2] = test system: fibrin deposition on the endothelium; experiment: Vessel-On-Chip blood perfusion, fibrin deposition by fluorescent fibrinogen imaging; assay type: cell-based, human; conditions: for fibrin deposition / fibrin signal intensity: TNF-α 50 ng/ml 6 hours endothelial pre-treatment or sCollagen 10 μg/ml in blood, vs blood alone; for fibrin deposition / fibrin clot formation: hu5C8 240 μg/ml, sCD40L 10 ng/ml, untreated endothelium, 60 μl/minute, vs untreated blood
Experimental: as §1, §2
When analyzing the formation of fibrin, […] of fluorescently labeled fibrinogen (Alexa 488, Invitrogen) was also added to the blood. While fluorescent fibrinogen was barely detected as a diffused fluorescence, fibrin deposition on inflamed cells and sparse clots was easily distinguished since fibrin formed filamentous structures produce a signal intensity that is clearly observed above a background threshold.
as §3, §4

[3] = test system: thrombin anti-thrombin complex (TAT); experiment: Thrombin anti-thrombin (TAT) ELISA in chip effluent plasma; assay type: cell-based, human; conditions: TNF-α endothelial pre-treatment or sCollagen in blood; outflow samples
Experimental: Thrombin converts fibrinogen into fibrin during clot formation, and anti-thrombin plays a role in maintaining homeostasis by inhibiting the effect of thrombin. Formation of TAT in the microdevice confirms that local and intrinsic generation of thrombin, a potent platelet agonist, occurs in the model and that counter regulatory mechanisms for coagulation are retained. Thus, blood sampled from the Vessel-On-Chip was analyzed for thrombin anti-thrombin complex (TAT), an accepted clinical biomarker for procoagulation^48,49. […] An enzyme-linked immunosorbant assay (ELISA) was used to quantify the thrombin anti-thrombin complex (TAT).
Thrombin Anti-Thrombin (TAT) levels were analyzed in plasma from blood flowing out of the chip device by removing a sample from the outflow port. Thus TAT levels were evaluated in sample effluents collected from the outflow port of the chip using the Human TAT ELISA Kit (Siemens Healthineers) according to the user manual.
Blood sampled from the Vessel-On-Chip outflow port was analyzed for thrombin anti-thrombin complex (TAT), a factor released upon activation of the coagulation cascade and one of the biomarkers associated with thrombotic events occurring in patients affected with deep vein thrombosis (DVT) or SLE^45,46. […] An enzyme-linked immunosorbant assay (ELISA) was used to quantify the thrombin anti-thrombin complex (TAT).

patients = conditions: hu5C8: lupus nephritis study; IDEC-131: Crohn's disease trial; cited from earlier work
[4] = Eptifibatide 2 ug/ml, endothelium inflamed with TNF-α, n=4

For `N=C(N)NCCCC[C@@H]1NC(=O)CCSSC[C@@H](C(N)=O)NC(=O)[C@@H]2CCCN2C(=O)[C@H](Cc2c[nH]c3ccccc23)NC(=O)[C@H](CC(=O)O)NC(=O)CNC1=O` [Eptifibatide] ([Mpa][hArg]GDWPC-NH2; disulfide 1-7), the “thrombotic events recapitulated in the system” value (FcγRIIa; clinically relevant dosages of Eptifibatide) was “inhibited”, the “inhibitory effect on platelet aggregation and fibrin clot formation” value ([1]; Eptifibatide 2 ug/ml, blood treated with sCollagen, n=4) was “comparatively modest” and the platelet aggregation [1, 4] was “significantly inhibited”. For the same compound, the “platelet adhesion (image analysis of multiple experiments)” value ([1]; Eptifibatide 2 ug/ml, n=4) was “completely inhibited”, the “platelet coverage in stimulated, pro-thrombotic conditions” value ([1]; TNF-α or sCollagen, with Eptifibatide, FIG. 18E-1, n=4 donors) was “suppressed” and the fibrin clot formation [2, 4] was “significantly inhibited”. For the same compound, the “fibrin signal (image analysis of multiple experiments)” value ([2]; Eptifibatide 2 ug/ml, samples treated with TNF-α, n=4) was “a significant amount of fibrin signal was still detectable” and the “fibrin deposition in stimulated, pro-thrombotic conditions” value ([2]; TNF-α or sCollagen, with Eptifibatide, FIG. 18E-2, n=4 donors) was “suppressed”.

In the case of TNF-α, the “levels of TAT” value [3] was “significantly increased; also recorded: elevated levels”, the “platelet aggregation / platelet coverage” value [1] was “increased; also recorded: high number of larger aggregates” and the “fibrin deposition / fibrin signal intensity” value [2] was “increased”.

For “hu5C8 (IgG2σ): IgG2σ variant of hu5C8 with an engineered Fc region that eliminates affinity for the FcγRIIa”, the “hu5C8-mediated thrombosis on-chip (platelet coverage, fibrin deposition, TAT)” value (“hu5C8-mediated thrombosis on-chip” below) (FcγRIIa) was “did not show signs of thrombosis”, the “hu5C8-mediated thrombosis on-chip” value (FcγRIIa; listed as IgG2σ) was “suppressed” and the “hu5C8-mediated thrombosis on-chip” value (FcγRIIa; listed as hu5C8-IgG2σ) was “not detected”.

For “hu5C8: humanized monoclonal IgG1 antibody against CD40L, alternatively named anti-sCD40L or anti-CD154”, the “incidence of thromboembolic events in clinical study” value (patients) is listed as 2/18, the “platelet aggregate formation / platelet coverage” value [1] is listed as “no significant treatment-related effects” and the “fibrin deposition / fibrin clot formation” value [2] is listed as “no significant treatment-related effects”.

In the case of sCD40L: Recombinant human sCD40 Ligand, the “platelet aggregate formation / platelet coverage” value [1] was “no significant treatment-related effects; also recorded: not statistically significant”, the “increase in platelet coverage in some donors, fold over untreated control” value ([1]; sCD40L alone) was “about 2 fold” and the “fibrin deposition / fibrin clot formation” value [2] was “no significant treatment-related effects”.

In the case of “sCollagen: soluble collagen (Soluble Calf Skin, Type I), a standard platelet activator”, the “levels of TAT” value [3] was “minimally increased; also recorded: elevated levels”, the “platelet aggregation / platelet coverage” value [1] was “increased; also recorded: high number of larger aggregates” and the “fibrin deposition / fibrin signal intensity” value [2] was “increased”.

Reference: US11150255B2, “Additive channels” (Emulate Inc., priority 2016, dated 2021)
